Measurements: ChEMBL document CHEMBL1157956, “Aegicerin, the first oleanane triterpene with wide-ranging antimycobacterial activity, isolated from Clavija procera” (J Nat Prod, 2006)
In brackets after ≈: the same amount, converted by molar mass.

Legend:
[1] = tested on: Mycobacterium tuberculosis; test: Antimicrobial activity against isoniazid-resistant Mycobacterium tuberculosis isolate by alamar blue assay; format: functional
[2] = tested on: Mycobacterium tuberculosis; test: Antimicrobial activity against multidrug-resistant Mycobacterium tuberculosis isolate by alamar blue assay; format: functional

| SMILES | MIC [1] | MIC [2] |
| --- | --- | --- |
| CC1(C)CC[C@]23CO[C@@]4(CC[C@@H]5[C@@]6(C)CC[C@H](O)C(C)(C)[C@@H]6CC[C@@]5(C)[C@]4(C)CC2=O)[C@@H]3C1 [AEGICERIN] | 1.6 µg/mL (≈ 3.5 µM) | 1.6 µg/mL (≈ 3.5 µM) |
| NNC(=O)c1ccncc1 [ISONIAZID] | 2 µg/mL (≈ 14.6 µM) | > 4 µg/mL |
| CC1(C)CC[C@]23CO[C@@]4(CC[C@@H]5[C@@]6(C)CC[C@H](O)C(C)(C)[C@@H]6CC[C@@]5(C)[C@]4(C)C[C@H]2O)[C@@H]3C1 [PROTOPRIMULAGENIN A] | 200 µg/mL (≈ 436 µM) | 200 µg/mL (≈ 436 µM) |
| CO[C@H]1/C=C/O[C@@]2(C)Oc3c(C)c(O)c4c(O)c(c(/C=N/N5CCN(C)CC5)c(O)c4c3C2=O)NC(=O)/C(C)=C\C=C\[C@H](C)[C@H](O)[C@@H](C)[C@@H](O)[C@@H](C)[C@H](OC(C)=O)[C@@H]1C [RIFAMPIN] | 0.063 µg/mL (≈ 0.0766 µM) | > 2 µg/mL |
